{
  "source": "patent US20240228542A1",
  "about": "“LYTIC DOMAIN FUSION CONSTRUCTS, CHECKPOINT INHIBITORS, AND METHODS OF MAKING AND USING SAME” (A28 Therapeutics Inc., priority 2020, published 2024)",
  "key": {"MDA-MB-231": {"test_system": "MDA-MB-231", "test": "Cytotoxicity in MDA-MB-231 breast cancer cells", "type": "cell-based", "conditions": "MDA-MB-231 breast cancer cell line; read-out: IC50 in Human Cancer Cell Lines", "description": "(§1) MDA-MB-435S.luc cells were grown in Leibovitz's L 15 medium, 10% fetal bovine serum, 0.01 mg/ml bovine insulin, 100 IU/ml penicillin, 100 microg/ml streptomycin. The cells were cultured in tight closed flasks. The incubations were conducted using 96 well plates at 10,000 cells per well. Cells were typically seeded into 96 well plates and media was replaced after 48 hours of incubation. Each assay was conducted at increasing concentrations of 0, 0.001, 0.01, 0.05, 0.1, 0.5, 1, 2, 5, 10 and 100 micromolar doses of lytic peptide-binding domain conjugate. Each lytic peptide-binding domain conjugate provided in lyophilized form and was freshly dissolved in saline and added to cells. The duration of incubation was typically 24 h, and cell viability assays were conducted using formazan conversion assays (MTT assay). Controls contained saline or 0.1% triton as reference for 0 and 100% cell death, respectively.\n(§2) To ascertain the IC50 of various fusion constructs on different human cancer cell lines compared to cisplatinum, IC50 of fusion constructs were evaluated as in Table 3."}, "MDA-MB-435 cells": {"test_system": "MDA-MB-435 cells", "test": "Fluorescence microscopy of MDA-MB-435 cells", "type": "cell-based, human", "conditions": "10 μM, 5 minutes exposure", "description": "In brief, human melanoma cells (MDA-MB-435, passage #252) were seeded onto culture dishes. The following markers were introduced prior to adding EP-100; DRAQ5™(Alexis Corporation)—blue—was used for staining of the nucleus and Mito Tracker® Red CMXRos (M7512) (Molecular Probes, Inc. OR) were applied for visualizing intact mitochondria. Cell membranes were stained with wheat germ alexa fluor green conjugates (Molecular Probes, Inc. OR).\nCells were loaded first with Mitotracker dye, according to the manufacturer's recommendation. Phor 18-LHRH (338613) reconstituted in saline was added at a final concentration of 10 μM and incubated for 5-10 minutes. Culture dishes with saline only served as controls. The supernatant was removed, and the remaining cells prepared for fluorescence microscopy imaging."}, "[1]": {"test_system": "murine ovarian cancer cells", "test": "EP-100 cytotoxicity and LHRH-R specificity in murine ovarian cancer cells", "type": "cell-based", "conditions": "ID8 cells, EP-100, 24 hr", "source_text": "To identify the direct effects of EP-100 on cancer cells, murine ovarian cancer cell lines were used for in vitro experiments. […] The level of expression of LHRH-R in murine ovarian cancer cells using RT-PCR and Western blot analysis. […] Indeed, LHRH-R was expressed mainly on the membrane of cancer cells (FIGS. 14D and 14E). Human SKOV3ipl ovarian cancer cells and immortalized murine 3T3 fibroblasts were used as negative controls.\nTo determine whether the antitumor EP-100 efficacy was specific to LHRH-R expression, we silenced LHRH-R using siRNA (FIG. 15A). […]."}, "[2]": {"test_system": "IG10 murine ovarian carcinoma", "test": "Orthotopic IG10 murine ovarian carcinoma syngeneic model", "type": "in vivo, C57BL/6 mice", "description": "C57BL/6 female mice were injected orthotopically with luciferase labeled IG10 murine ovarian cancer cell line (1x10^6 cells). Mice were monitored for tumor take using a luminescent imaging system. […] Each treatment and control group consisted of 10 mice. At necropsy on day 28, ascites fluids were removed and measured, and tumors were removed and weighed.\nSignificance between treatment groups was assessed using Wilcoxon signed Rank test analysis and ANOVA."}, "AN3-CA": {"test_system": "AN3-CA", "test": "Cytotoxicity in AN3-CA endometrial cancer cells", "type": "cell-based", "conditions": "AN3-CA endometrial cancer cell line; read-out: IC50 in Human Cancer Cell Lines", "description": "as §1, §2"}, "immune cells in tumor": {"test_system": "immune cells in tumor", "test": "Immune cell profiling (FACS) of ID8 tumors", "type": "in vivo, C57BL/6 mice", "description": "Immune Profiling Assay—Immunophenotypic analyses of splenocytes and single cell suspensions from tumors were assessed by flow cytometry. Abs to stain for MDSCs were CD11b-APC (clone M1/70; BD Biosciences), Ly6G-FITC (clone 1A8; BD Biosciences) and Ly6C-PE (clone AL-21; BD Biosciences). For T-cell activation markers, cells were stained with Ab specific for CD4-PE-Cy7 (clone RM4-5; BD Biosciences), CD8-PE-Cy7 (clone 53-6.7; BD Biosciences), CD62L-PE (clone MEL-14; BD Biosciences) and CD44-FITC (clone IM7; Biolegend). Cells were incubated on ice for 30 min, washed and fixed in phosphate buffered saline (PBS) containing 1% formalin for flow cytometric analysis on an LSRII flow cytometer (BD Biosciences).\nImmune cell profiling was conducted on ascites (N=3) and tumor tissue (N=3) by processing the samples by the following method and analyzed through Fluorescent Activated Cell Sorting (FACS), see Table 8. Cells were incubated for 30 minutes on ice, washed and fixed in phosphate buffered saline containing 1% formalin for flow cytometric analysis on an LSRII flow cytometer."}, "IF5": {"test_system": "IF5", "test": "Cytotoxicity in IF5 murine ovarian cancer cells (24 h)", "type": "cell-based", "conditions": "IF5, 24 h; read-out: In vitro activity (IC50)", "description": "(§3) Murine ovarian cancer cell lines (ID8, IG10, IF5, and 2Cl2) were grown in RPMI 1640 media with 10% Fetal Bovine Serum. Cells were typically seeded (3000 cells per well) into 96 well plates and media was replaced after 48 hours of incubation. […] Phor18-LHRH was provided in lyophilized form was dissolved in saline and added to cells. The duration of incubation was 24 h at 37° C. Cell viability was assessed after 24 hours using a luminometric assays (Promega, CellTiter-0Glo 2.0, G9243). Controls contained saline or 0.1% triton as reference for 0 and 100% cell death, respectively.\n(§4) Data were processed and analyzed using GraphPad Prism version 7.00 for Windows (GraphPad Software, San Diego California). Statistical analysis for significance was determined by a two-tailed Student's T-test. Each study was conducted to achieve an […] of at least 6.\n(§5) In vitro activities were expressed as IC50 values for each cell line, time point and compound tested that were calculated using the Hill equation (Graph Pad Prizm software)."}, "ID8": {"test_system": "ID8", "test": "Cytotoxicity in ID8 murine ovarian cancer cells (24 h)", "type": "cell-based", "conditions": "ID8, 24 h; read-out: In vitro activity (IC50)", "description": "as §3, §4, §5"}},
  "data": [
    {"sequence": "KFAKFAKKFAKFAKKFAKQHWSYGLRPG [Phor18-LHRH]", "values": [
      {"measurement": "IC50", "setting": "MDA-MB-231", "result": "5.5 ± 1.2", "unit": "µM"},
      {"measurement": "plasma membrane, fluorescence microscopy", "setting": "MDA-MB-435 cells", "result": "disintegration of the plasma membrane"},
      {"measurement": "viability of cells in which LHRH-R was silenced (siRNA)", "setting": "[1]", "result": "remained viable"},
      {"measurement": "relative reduction of ascites volumes", "setting": "[2]", "result": 60.2, "unit": "%"},
      {"measurement": "tumor weights at necropsy", "setting": "[2]; Mean±SEM, N=10, controls 1.04±0.09 g", "result": "0.45 ± 0.08", "unit": "g"},
      {"measurement": "ascites volumes", "setting": "[2]; Mean±SEM, N=10, vehicle 9.06±1.3 ml", "result": "3.6 ± 0.7", "unit": "mL"},
      {"measurement": "IC50", "setting": "AN3-CA", "result": "3.8 ± 0.08", "unit": "µM"},
      {"measurement": "increase of CD8+ T/Treg ratio", "setting": "immune cells in tumor; tumor (tumor and ascites)", "result": 8, "unit": "fold"},
      {"measurement": "Regulatory T cells (Treg)", "setting": "immune cells in tumor; tumor, % of CD45+ cells, controls 1.14±0.09%", "result": "0.95±0.15", "unit": "%"},
      {"measurement": "Monocytic myeloid suppressor cells (mMDSC)", "setting": "immune cells in tumor; tumor, % of CD45+ cells, controls 1.5±0.006%", "result": "1.015±0.15", "unit": "%"},
      {"measurement": "Macrophages", "setting": "immune cells in tumor; tumor, % of CD45+ cells, controls 1.6±0.05%", "result": "10.1±0.13", "unit": "%"},
      {"measurement": "Dendritic cells (DC)", "setting": "immune cells in tumor; tumor, % of CD45+ cells, controls 1.88±0.03%", "result": "5.12±0.34", "unit": "%"},
      {"measurement": "CD8+ T cells", "setting": "immune cells in tumor; tumor, % of CD45+ cells, controls 2.6±0.4%", "result": "15.5±0.8", "unit": "%"},
      {"measurement": "Natural killer (NK) cells", "setting": "immune cells in tumor; tumor, % of CD45+ cells, controls 3.76±[…]", "result": "10.67±1.4", "unit": "%"},
      {"measurement": "B cells", "setting": "immune cells in tumor; tumor, % of CD45+ cells, controls 12.14±0.9%", "result": "10.1±2.4", "unit": "%"},
      {"measurement": "CD45+ cell fraction of live cells", "setting": "immune cells in tumor; tumor, Mean±SEM, controls 8.16±[…]", "result": "26.1±5.2", "unit": "%"},
      {"measurement": "ratio of CD8+ T cells to regulatory T cells", "setting": "immune cells in tumor; tumor, controls 2.27±0.26", "result": "15.5±2.5"},
      {"measurement": "IC50", "setting": "IF5", "result": 1.01, "unit": "µM"},
      {"measurement": "IC50", "setting": "ID8", "result": 1.37, "unit": "µM"}
    ]}
  ]
}
